Assay results as given in PubChem BioAssay AID2060360 (Molecular Pharmacology Branch, DTP, NCI, 2025).

Tested on: 282377-053-R-J1-PDC tumor spheroids, viability
Test: Anticancer human tumor 282377-053-R-J1-PDC patient-derived colon adenocarcinoma cell line growth inhibition [TAK]
Conditions: spheroids with HUVEC and MSC; for IC50: curve of first compound; for viability, T/C: stronger effect = lower value; active = viability on the fitted dose curve at most 10% of control; inactive = the rest
From the text: Combinatorial screen of targeted agents with TAK-243 and ipatasertib in multi-cell type tumor spheroids
A high-throughput screen of multi-cell type tumor spheroids was designed to identify active combinations of targeted small molecules and TAK-243 or ipatasertib. Complex spheroids include a stromal component modeled by human endothelial cells (HUVEC) and fibroblasts modeled by human mesenchymal stem cells (MSCs). The concentration ranges selected for each drug and investigational agent were based upon clinically achievable concentrations if the clinical Cmax of the agent was known.
Compounds. The drugs and investigational agents: TAK-243 (785004), ipatasertib (767898), everolimus (733504), selumetinib (741078), bortezomib (756655), trametinib (758246), ixazomib (758254), vemurafenib (761431), dabrafenib (764134), sapanisertib (764658), alpelisib (765974), and copanlisib (816437), were obtained from the National Cancer Institute (NCI) Developmental Therapeutics Program Chemical Repository. The FDA-approved anticancer drug set is available from the NCI Developmental Therapeutics Program. […] The stock solutions were prepared in dimethyl sulfoxide (DMSO, Sigma-Aldrich, St. Louis, MO, cat. D2650) at 800-fold the tested concentration and stored at -70 degrees C prior to their use. All drugs and investigational agents were tested over a range starting from a high concentration at or near the clinical Cmax and decreasing in half-log increments. If the clinical Cmax for an agent had not been determined, the highest concentration tested was 10 microM.
NCI60 Cell Culture. NCI60 cell lines were obtained from the NCI Developmental Therapeutics Program Tumor Repository. For each lot of cells, the Repository performed Applied Biosystems AmpFLSTR Identifiler testing with PCR amplification to confirm consistency with the published Identifier STR profile for each cell line. Cells were kept in continuous culture for no more than 20 passages. The optimal seeding densities for each of the cell lines at each time point assessed were determined prior to performing the concentration response studies. Briefly, the NCI60 human tumor lines were grown as monolayers in RPMI 1640 medium supplemented with 10% FBS and 2 mmol/L L-glutamine.
An additional 2 lines were from the NCI60 cell line panel including melanomas, MALME-3M and SK-MEL-2. Pooled donor human umbilical vein endothelial cells (HUVEC, Lonza, cat. CC-2519) and human mesenchymal stem cells (hMSC, Lonza, cat. PT-2501) were purchased from Lonza (Walkersville, MD).
PDMR cell lines were grown in complete medium (DC medium): Dulbecco's modified Eagle's medium (DMEM)/F12 supplemented with 5% fetal bovine serum (FBS), 2 mM L-glutamine, 100 U/mL penicillin and 100 µg/ml streptomycin, 0.4 µg/ml hydrocortisone, 10 ng/ml epidermal growth factor (EGF) recombinant human protein, 24 µg/mL adenine, and 0.1 mg/mL primocin. During culture from frozen stock vials, PDMR cells were cultured in the same medium containing 10 µM Y-27632 (see Table 3). The PDCs were cultured in complete DMEM/F12 media without 10 microM Y-27632 dihydrochloride for at least two passages prior to the screen. The pooled donor HUVEC and hMSC were cultured in endothelial cell growth medium 2 (PromoCell, Heidelberg, Germany, cat. C-22011) and mesenchymal stem cell growth medium 2 (PromoCell, cat. C-28009), respectively. For all experiments, HUVEC and hMSC were used at passages </=5.
For the pre-screen, cell seeding densities were determined from a titration spanning the range from 5,000 to 313 cells per well. The mct-spheroids including 60% malignant cells, 25% HUVEC and 15% MSC dispensed as a mixture into U-bottom Ultra-Low Attachment 384-well plates (Corning, NY)
High-throughput Drug Combination Screening.
Prior to their inoculation into 384-well plates, malignant cells, HUVEC, and hMSC were removed from T flasks using TrypLE express (Thermo Fisher Scientific, cat. 12605036) and harvested by centrifugation for 5 min at 233 x g. […]
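Note: spheroids exposed to drugs for seven days before readout.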

COC1CC2CCC(C)C(O)(O2)C(=O)C(=O)N2CCCCC2C(=O)OC(C(C)CC2CCC(OCCO)C(OC)C2)CC(=O)C(C)C=C(C)C(O)C(OC)C(=O)C(C)CC(C)C=CC=CC=C1C (stereo not given) + CC(C)NCC(C(=O)N1CCN(c2ncnc3c2C(C)CC3O)CC1)c1ccc(Cl)cc1
8.56 nM: IC50 (second compound 30 µM)
inactive: viability, T/C (second compound 0.3 µM, first compound 0.000316 µM) 93.1% | viability, T/C (second compound 0.3 µM, first compound 0.001 µM) 91.7% | viability, T/C (second compound 0.3 µM, first compound 0.00316 µM) 94% | viability, T/C (second compound 0.3 µM, first compound 0.01 µM) 95% | viability, T/C (second compound 0.3 µM, first compound 0.0316 µM) 93.7% | viability, T/C (second compound 0.3 µM, first compound 0.1 µM) 91.4% | viability, T/C (second compound 0.949 µM, first compound 0.000316 µM) 93.3% | viability, T/C (second compound 0.949 µM, first compound 0.001 µM) 87% | viability, T/C (second compound 0.949 µM, first compound 0.00316 µM) 91.8% | viability, T/C (second compound 0.949 µM, first compound 0.01 µM) 91.8% | viability, T/C (second compound 0.949 µM, first compound 0.0316 µM) 87.7% | viability, T/C (second compound 0.949 µM, first compound 0.1 µM) 89.4% | viability, T/C (second compound 3 µM, first compound 0.000316 µM) 82.2% | viability, T/C (second compound 3 µM, first compound 0.001 µM) 87.6% | viability, T/C (second compound 3 µM, first compound 0.00316 µM) 80.9% | viability, T/C (second compound 3 µM, first compound 0.01 µM) 82.2% | viability, T/C (second compound 3 µM, first compound 0.0316 µM) 82.2% | viability, T/C (second compound 3 µM, first compound 0.1 µM) 79.1% | viability, T/C (second compound 9.49 µM, first compound 0.000316 µM) 81.2% | viability, T/C (second compound 9.49 µM, first compound 0.001 µM) 77.8% | viability, T/C (second compound 9.49 µM, first compound 0.00316 µM) 73.5% | viability, T/C (second compound 9.49 µM, first compound 0.01 µM) 74.9% | viability, T/C (second compound 9.49 µM, first compound 0.0316 µM) 65.8% | viability, T/C (second compound 9.49 µM, first compound 0.1 µM) 60.4% | viability, T/C (second compound 30 µM, first compound 0.000316 µM) 61.6% | viability, T/C (second compound 30 µM, first compound 0.001 µM) 64.3% | viability, T/C (second compound 30 µM, first compound 0.00316 µM) 55.8% | viability, T/C (second compound 30 µM, first compound 0.01 µM) 48.3% | viability, T/C (second compound 30 µM, first compound 0.0316 µM) 39.9% | viability, T/C (second compound 30 µM, first compound 0.1 µM) 31%
> 100 nM: IC50 (second compound 0.3 µM) | IC50 (second compound 0.949 µM) | IC50 (second compound 3 µM) | IC50 (second compound 9.49 µM)

Cn1cnc2c(F)c(Nc3ccc(Br)cc3Cl)c(C(=O)NOCCO)cc21 + CC(C)NCC(C(=O)N1CCN(c2ncnc3c2C(C)CC3O)CC1)c1ccc(Cl)cc1
396 nM: IC50 (second compound 0.3 µM)
66 nM: IC50 (second compound 30 µM)
190 nM: IC50 (second compound 0.949 µM)
191 nM: IC50 (second compound 9.49 µM)
inactive: viability, T/C (second compound 0.3 µM, first compound 0.00949 µM) 81.5% | viability, T/C (second compound 0.3 µM, first compound 0.03 µM) 74.4% | viability, T/C (second compound 0.3 µM, first compound 0.0949 µM) 63.6% | viability, T/C (second compound 0.3 µM, first compound 0.3 µM) 55.6% | viability, T/C (second compound 0.3 µM, first compound 0.949 µM) 38.4% | viability, T/C (second compound 0.3 µM, first compound 3 µM) 17.4% | viability, T/C (second compound 0.949 µM, first compound 0.00949 µM) 82% | viability, T/C (second compound 0.949 µM, first compound 0.03 µM) 70.9% | viability, T/C (second compound 0.949 µM, first compound 0.0949 µM) 56.9% | viability, T/C (second compound 0.949 µM, first compound 0.3 µM) 45.6% | viability, T/C (second compound 0.949 µM, first compound 0.949 µM) 31.8% | viability, T/C (second compound 0.949 µM, first compound 3 µM) 18.9% | viability, T/C (second compound 3 µM, first compound 0.00949 µM) 77.1% | viability, T/C (second compound 3 µM, first compound 0.03 µM) 70.5% | viability, T/C (second compound 3 µM, first compound 0.0949 µM) 54.8% | viability, T/C (second compound 3 µM, first compound 0.3 µM) 42.1% | viability, T/C (second compound 3 µM, first compound 0.949 µM) 31% | viability, T/C (second compound 3 µM, first compound 3 µM) 18.4% | viability, T/C (second compound 9.49 µM, first compound 0.00949 µM) 73.4% | viability, T/C (second compound 9.49 µM, first compound 0.03 µM) 72.2% | viability, T/C (second compound 9.49 µM, first compound 0.0949 µM) 57% | viability, T/C (second compound 9.49 µM, first compound 0.3 µM) 44.3% | viability, T/C (second compound 9.49 µM, first compound 0.949 µM) 30.1% | viability, T/C (second compound 9.49 µM, first compound 3 µM) 18.8% | viability, T/C (second compound 30 µM, first compound 0.00949 µM) 61.5% | viability, T/C (second compound 30 µM, first compound 0.03 µM) 59.8% | viability, T/C (second compound 30 µM, first compound 0.0949 µM) 45.2% | viability, T/C (second compound 30 µM, first compound 0.3 µM) 34.2% | viability, T/C (second compound 30 µM, first compound 0.949 µM) 26.4% | viability, T/C (second compound 30 µM, first compound 3 µM) 13.2%
161 nM: IC50 (second compound 3 µM)
